Test [1] deals with T1, Sentrin-specific protease 1 (Homo sapiens, UniProt Q9P0U3).
T1 sequence (Q9P0U3 whole entry): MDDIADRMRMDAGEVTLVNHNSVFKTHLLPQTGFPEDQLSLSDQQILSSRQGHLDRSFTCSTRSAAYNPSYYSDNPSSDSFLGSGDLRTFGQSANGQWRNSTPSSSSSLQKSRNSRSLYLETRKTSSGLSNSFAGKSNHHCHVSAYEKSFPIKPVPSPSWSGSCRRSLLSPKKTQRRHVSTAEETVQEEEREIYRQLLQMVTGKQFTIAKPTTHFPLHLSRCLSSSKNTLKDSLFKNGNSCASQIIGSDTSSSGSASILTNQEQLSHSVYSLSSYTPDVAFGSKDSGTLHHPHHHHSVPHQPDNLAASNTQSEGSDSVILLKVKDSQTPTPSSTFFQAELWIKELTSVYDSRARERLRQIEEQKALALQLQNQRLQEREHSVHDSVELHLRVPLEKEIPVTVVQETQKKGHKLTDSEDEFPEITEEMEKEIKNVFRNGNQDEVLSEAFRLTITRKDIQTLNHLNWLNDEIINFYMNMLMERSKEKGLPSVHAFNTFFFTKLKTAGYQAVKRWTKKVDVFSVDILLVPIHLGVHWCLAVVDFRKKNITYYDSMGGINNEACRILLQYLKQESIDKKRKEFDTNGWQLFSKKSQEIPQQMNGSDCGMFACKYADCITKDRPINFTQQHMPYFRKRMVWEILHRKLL
Put plainly: Dose response confirmation of small molecule inhibitors of the catalytic domain of the SUMO protease, SENP1 in a FRET assay. It counts as functional. The settings on record: read-out: IC50_Mean.

Test [2] concerns the target T2, Corticotropin-releasing factor receptor 2/Corticotropin-releasing factor-binding protein (Homo sapiens, UniProt P24387+Q13324).
T2 sequence (Q13324 whole entry): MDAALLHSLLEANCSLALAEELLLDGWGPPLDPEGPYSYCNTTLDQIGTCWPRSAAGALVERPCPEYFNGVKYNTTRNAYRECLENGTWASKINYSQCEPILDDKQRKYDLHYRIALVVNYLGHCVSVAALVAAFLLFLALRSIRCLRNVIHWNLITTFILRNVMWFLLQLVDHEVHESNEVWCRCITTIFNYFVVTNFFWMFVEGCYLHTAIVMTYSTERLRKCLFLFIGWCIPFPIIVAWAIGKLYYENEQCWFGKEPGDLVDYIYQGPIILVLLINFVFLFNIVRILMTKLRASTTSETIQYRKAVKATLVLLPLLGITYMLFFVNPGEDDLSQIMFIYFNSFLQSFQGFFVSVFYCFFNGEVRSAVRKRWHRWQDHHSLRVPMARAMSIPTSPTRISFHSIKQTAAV
T2 sequence (P24387 whole entry): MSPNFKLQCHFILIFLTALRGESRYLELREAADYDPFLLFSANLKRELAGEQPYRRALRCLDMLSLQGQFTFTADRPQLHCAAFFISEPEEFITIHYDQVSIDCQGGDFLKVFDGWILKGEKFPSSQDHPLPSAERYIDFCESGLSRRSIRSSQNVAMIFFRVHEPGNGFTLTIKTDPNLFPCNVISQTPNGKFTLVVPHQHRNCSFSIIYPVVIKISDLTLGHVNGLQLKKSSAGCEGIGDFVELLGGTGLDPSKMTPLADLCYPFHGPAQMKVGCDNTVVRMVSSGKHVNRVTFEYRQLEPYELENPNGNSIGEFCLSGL
Put plainly: activators of CRF receptor 2 with binding protein – uHTS hits, confirmation (AID 602473). Conditions: read-out: EC50_Mean. It counts as functional.

Test [3] has as its target T1, Sentrin-specific protease 1. In words: potency of human SENP1 inhibitors, dose response, biochemical, kinetic FRET (AID 651697). Format: functional. Conditions: read-out: IC50_Mean.
Test [4] addresses T3, Short transient receptor potential channel 4 (Mus musculus, UniProt Q9QUQ5).
T3 sequence (Q9QUQ5 whole entry): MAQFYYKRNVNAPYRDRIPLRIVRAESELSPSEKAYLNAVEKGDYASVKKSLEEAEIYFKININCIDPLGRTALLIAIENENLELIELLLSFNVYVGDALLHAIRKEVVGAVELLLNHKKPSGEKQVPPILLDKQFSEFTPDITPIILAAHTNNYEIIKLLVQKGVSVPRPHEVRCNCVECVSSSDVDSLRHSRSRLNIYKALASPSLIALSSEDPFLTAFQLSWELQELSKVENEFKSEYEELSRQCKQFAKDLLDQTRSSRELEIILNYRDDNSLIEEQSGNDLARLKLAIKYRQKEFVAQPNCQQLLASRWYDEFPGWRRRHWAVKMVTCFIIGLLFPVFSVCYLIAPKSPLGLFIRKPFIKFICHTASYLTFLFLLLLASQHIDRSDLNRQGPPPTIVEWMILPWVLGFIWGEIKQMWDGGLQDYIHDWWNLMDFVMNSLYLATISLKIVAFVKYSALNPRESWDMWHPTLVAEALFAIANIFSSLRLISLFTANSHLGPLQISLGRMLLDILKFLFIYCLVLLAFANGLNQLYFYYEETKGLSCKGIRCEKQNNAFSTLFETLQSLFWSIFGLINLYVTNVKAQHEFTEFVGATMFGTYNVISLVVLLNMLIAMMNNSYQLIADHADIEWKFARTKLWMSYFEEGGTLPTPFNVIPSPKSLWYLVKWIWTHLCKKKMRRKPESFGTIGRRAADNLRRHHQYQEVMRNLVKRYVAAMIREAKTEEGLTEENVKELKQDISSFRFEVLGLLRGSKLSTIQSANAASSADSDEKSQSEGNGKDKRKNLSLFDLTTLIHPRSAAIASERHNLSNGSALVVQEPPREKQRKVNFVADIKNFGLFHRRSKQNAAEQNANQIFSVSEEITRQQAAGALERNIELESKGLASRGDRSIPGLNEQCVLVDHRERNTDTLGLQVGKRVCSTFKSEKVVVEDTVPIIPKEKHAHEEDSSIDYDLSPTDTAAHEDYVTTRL
Put plainly: mouse TRPC4 channel inhibitors, dose response, cell-based, HEK293 TRPC4/mu-opioid, Fluo-4 calcium (AID 434942).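 Note: potency of inhibitors blocking the TRPC4 calcium response.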 Format: functional.

Test [5] addresses T4, Beta-lactamase (Pseudomonas aeruginosa, UniProt Q79MP6). Put plainly: IMP-1 metallo-beta-lactamase inhibitors, dose response, selectivity assay for VIM-2 inhibitor project, biochemical, epi-absorbance (AID 1920).
Test [6] concerns the target T4, Beta-lactamase. Put plainly: […] counterscreen for selective VIM-2 inhibitors: dose response biochemical high throughput screening assay to identify inhibitors of IMP-1 metallo-beta-lactamase. On the technique in general: Counterscreens check selectivity or assay interference.
Test [7] concerns the target Beta-lactamase (Salmonella choleraesuis (strain SC-B67), UniProt Q5J463). In words: Epi-absorbance-based counterscreen for selective VIM-2 inhibitors: dose response biochemical high throughput screening assay to identify inhibitors of TEM-1 serine-beta-lactamase.
The target of a further test is Phospholipase A2 (Homo sapiens, UniProt P04054). Format: functional.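 Note: confirmatory dose-response counterscreen on phospholipase A2, testing hits that came from an ultra-high-throughput screen for ATG4B inhibitors.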
Sequence of Phospholipase A2 (P04054 whole entry): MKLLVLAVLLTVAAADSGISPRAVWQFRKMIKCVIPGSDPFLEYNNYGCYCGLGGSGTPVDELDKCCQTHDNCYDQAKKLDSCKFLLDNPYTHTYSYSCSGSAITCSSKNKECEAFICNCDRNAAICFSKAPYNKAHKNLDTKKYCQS
For another test, the target named is T5, Cysteine protease ATG4B (Homo sapiens, UniProt Q9Y4P1).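 Note: Fluorescence-based dose-response confirmation assay measuring inhibition of ATG4B activity.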
T5 sequence (Q9Y4P1 whole entry): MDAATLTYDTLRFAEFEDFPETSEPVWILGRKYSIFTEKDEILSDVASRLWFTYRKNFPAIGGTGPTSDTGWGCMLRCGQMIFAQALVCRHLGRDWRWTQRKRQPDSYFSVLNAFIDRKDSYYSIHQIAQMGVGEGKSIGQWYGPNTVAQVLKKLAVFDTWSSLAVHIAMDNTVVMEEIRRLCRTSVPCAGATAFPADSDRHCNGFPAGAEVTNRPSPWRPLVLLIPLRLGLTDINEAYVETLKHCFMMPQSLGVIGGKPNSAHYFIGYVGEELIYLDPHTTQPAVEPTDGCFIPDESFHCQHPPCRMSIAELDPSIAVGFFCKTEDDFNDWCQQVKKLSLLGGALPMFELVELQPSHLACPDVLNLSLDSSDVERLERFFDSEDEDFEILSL
It counts as functional.

The target of test [8] is Fructose-bisphosphate aldolase (Mycobacterium tuberculosis, UniProt P9WQA3). In words: Fluorescence-based biochemical high throughput dose response assay for inhibitors of the fructose-bisphosphate aldolase (FBA) of M. tuberculosis. It counts as functional.
Sequence of Fructose-bisphosphate aldolase (P9WQA3 whole entry): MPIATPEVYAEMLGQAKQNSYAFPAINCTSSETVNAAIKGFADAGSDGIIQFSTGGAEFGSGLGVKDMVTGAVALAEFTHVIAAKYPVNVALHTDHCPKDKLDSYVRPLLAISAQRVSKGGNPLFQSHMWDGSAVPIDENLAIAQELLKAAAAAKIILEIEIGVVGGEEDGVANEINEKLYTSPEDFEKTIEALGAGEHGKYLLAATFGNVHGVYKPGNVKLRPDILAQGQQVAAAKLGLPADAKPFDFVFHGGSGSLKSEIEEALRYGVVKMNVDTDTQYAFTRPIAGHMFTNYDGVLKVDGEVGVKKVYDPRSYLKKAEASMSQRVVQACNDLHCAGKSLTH
In test [9] the target is T6, Methionyl-tRNA synthetase, putative (Trypanosoma brucei brucei, UniProt Q38C91).
T6 sequence (Q38C91 whole entry): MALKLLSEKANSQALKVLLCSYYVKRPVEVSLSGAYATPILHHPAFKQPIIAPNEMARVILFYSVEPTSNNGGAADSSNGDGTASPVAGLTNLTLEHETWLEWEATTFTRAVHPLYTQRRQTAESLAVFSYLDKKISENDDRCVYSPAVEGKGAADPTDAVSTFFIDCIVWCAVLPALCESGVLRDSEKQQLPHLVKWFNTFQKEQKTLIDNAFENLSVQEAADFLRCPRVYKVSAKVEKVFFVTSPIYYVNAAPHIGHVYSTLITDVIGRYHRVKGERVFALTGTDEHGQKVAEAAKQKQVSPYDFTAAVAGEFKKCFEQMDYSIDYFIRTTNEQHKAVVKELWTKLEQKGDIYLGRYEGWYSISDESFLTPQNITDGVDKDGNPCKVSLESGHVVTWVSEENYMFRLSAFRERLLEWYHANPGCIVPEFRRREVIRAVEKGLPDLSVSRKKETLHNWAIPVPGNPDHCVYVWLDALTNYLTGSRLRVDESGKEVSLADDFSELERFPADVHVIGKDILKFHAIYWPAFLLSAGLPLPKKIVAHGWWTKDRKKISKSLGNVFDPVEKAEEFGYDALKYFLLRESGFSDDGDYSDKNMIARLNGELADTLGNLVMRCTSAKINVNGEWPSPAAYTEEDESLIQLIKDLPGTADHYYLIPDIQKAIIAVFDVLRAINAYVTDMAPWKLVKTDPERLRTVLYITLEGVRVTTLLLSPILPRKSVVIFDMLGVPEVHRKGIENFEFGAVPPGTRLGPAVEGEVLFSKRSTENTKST
It counts as functional, Trypanosoma brucei brucei strain 927/4 GUTat10.1.

In test [10] the target is T6, Methionyl-tRNA synthetase, putative. Format: functional, Trypanosoma brucei brucei strain 927/4 GUTat10.1. This is another data set of the same source.
Test [11] can be described thus: Counterscreen for inhibitors of Trypanosoma brucei methionyl tRNA synthetase (MetRS): Luminescence-based cell-based high throughput dose response assay to identify compounds that are cytotoxic to Jurkat human T lymphocyte cells. Format: functional.
Test [12] in a line: HEK293 cell viability, dose response, counter-screen for EBV LMP1 inhibitor project, dry powder, set 2 (AID 624374). It counts as functional.
In the next test the test system is Vero. Put plainly: Vero cell toxicity, dose response, cytotoxicity control, plate reader, cherry-pick samples (AID 687020). Conditions: Chlorocebus sabaeus. It counts as functional, cell-based.
Test [13] in a line: Jurkat T cell cytotoxicity, dose response, cytotoxicity control for P. falciparum gametocyte viability project, luminescence (AID 1117277).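 Note: potency reflects loss of cellular ATP meaning fewer viable cells.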 Format: functional, cell-based.
The nature of test [14]: P. falciparum late gametocyte killing, dose response, luminescence (AID 1117278).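 Note: gametocytes exposed to compound for 24 hours.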 Format: functional, cell-based.
Test [15] addresses Long-chain-fatty-acid--AMP ligase FadD28 (Mycobacterium tuberculosis, UniProt P9WQ59). Put plainly: Fluorescence polarization aasay to screen for inhibitors that compete for the binding of FadD28 to a bisubstrate Measured in Biochemical System Using Plate Reader - 2147-01_Inhibitor_Dose_CherryPick_Activity. It counts as functional, Mycobacterium tuberculosis H37Rv. In general terms: Fluorescence polarisation rises when a labelled molecule tumbles more slowly, as on binding a larger partner.

Test [16] concerns the target Voltage-gated inwardly rectifying potassium channel KCNH2 (Homo sapiens, UniProt Q12809). Conditions: Potency.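 Note: confirmatory quantitative high-throughput screen measuring inhibition of hERG channel activity.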
The target in a further test is Cytochrome P450 3A4 (Homo sapiens, UniProt P08684).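 Note: CYP3A4 tested as one member of a cytochrome P450 panel screen.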
Sequence of Cytochrome P450 3A4 (P08684 whole entry): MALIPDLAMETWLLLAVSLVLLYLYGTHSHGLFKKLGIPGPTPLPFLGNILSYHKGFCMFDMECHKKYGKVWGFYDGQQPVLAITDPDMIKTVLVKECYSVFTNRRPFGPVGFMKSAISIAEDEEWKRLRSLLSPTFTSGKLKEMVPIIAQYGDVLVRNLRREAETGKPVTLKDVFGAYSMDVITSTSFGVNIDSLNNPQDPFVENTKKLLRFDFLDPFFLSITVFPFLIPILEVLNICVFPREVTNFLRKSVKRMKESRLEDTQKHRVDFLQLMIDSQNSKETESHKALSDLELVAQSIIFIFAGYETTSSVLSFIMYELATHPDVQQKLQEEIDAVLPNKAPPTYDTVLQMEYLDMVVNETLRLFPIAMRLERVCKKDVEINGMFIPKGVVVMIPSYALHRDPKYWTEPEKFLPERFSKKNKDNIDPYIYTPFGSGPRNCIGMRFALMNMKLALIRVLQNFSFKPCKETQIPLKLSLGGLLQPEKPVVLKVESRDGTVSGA
Test [17] deals with Heat shock protein HSP 90-alpha (Homo sapiens, UniProt P07900). Format: functional, organism-based.

Calls of active or inactive are those of the source. Bounds are passed on as bounds.

Consider 10 compounds from ChEMBL document CHEMBL1201862, “PubChem BioAssay data set” (2004).

T4 sequence (Q79MP6 whole entry): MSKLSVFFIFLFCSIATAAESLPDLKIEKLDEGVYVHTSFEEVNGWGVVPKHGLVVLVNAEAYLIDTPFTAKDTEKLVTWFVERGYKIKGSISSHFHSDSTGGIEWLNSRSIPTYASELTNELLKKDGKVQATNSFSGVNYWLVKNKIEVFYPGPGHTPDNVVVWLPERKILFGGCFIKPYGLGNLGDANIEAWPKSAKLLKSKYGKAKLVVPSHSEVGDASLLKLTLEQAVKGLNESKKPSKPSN
Sequence of Beta-lactamase (Salmonella choleraesuis (strain SC-B67), UniProt Q5J463) (Q5J463 whole entry): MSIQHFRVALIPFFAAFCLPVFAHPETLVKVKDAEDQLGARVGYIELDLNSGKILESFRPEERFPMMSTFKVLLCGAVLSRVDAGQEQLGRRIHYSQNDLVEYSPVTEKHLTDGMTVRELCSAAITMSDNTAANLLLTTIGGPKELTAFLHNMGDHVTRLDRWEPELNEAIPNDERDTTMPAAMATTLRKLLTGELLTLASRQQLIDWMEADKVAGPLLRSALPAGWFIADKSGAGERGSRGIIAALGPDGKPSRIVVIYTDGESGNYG
Sequence of Long-chain-fatty-acid--AMP ligase FadD28 (P9WQ59 whole entry): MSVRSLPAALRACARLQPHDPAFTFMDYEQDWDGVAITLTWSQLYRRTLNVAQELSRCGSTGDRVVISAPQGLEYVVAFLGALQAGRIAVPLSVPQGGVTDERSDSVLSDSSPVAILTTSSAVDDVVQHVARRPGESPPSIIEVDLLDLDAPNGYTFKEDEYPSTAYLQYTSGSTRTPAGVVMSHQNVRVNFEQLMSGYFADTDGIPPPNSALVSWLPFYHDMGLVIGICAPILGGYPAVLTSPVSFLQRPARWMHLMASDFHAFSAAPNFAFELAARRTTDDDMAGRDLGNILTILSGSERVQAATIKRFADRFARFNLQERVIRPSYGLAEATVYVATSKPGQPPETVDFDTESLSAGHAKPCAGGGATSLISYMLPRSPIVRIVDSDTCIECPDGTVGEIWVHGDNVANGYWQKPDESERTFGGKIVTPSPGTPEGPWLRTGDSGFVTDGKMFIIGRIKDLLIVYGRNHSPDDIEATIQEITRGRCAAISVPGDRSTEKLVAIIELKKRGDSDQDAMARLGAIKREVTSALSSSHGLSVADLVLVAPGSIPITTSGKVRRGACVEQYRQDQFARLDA
Sequence of Voltage-gated inwardly rectifying potassium channel KCNH2 (Q12809 whole entry): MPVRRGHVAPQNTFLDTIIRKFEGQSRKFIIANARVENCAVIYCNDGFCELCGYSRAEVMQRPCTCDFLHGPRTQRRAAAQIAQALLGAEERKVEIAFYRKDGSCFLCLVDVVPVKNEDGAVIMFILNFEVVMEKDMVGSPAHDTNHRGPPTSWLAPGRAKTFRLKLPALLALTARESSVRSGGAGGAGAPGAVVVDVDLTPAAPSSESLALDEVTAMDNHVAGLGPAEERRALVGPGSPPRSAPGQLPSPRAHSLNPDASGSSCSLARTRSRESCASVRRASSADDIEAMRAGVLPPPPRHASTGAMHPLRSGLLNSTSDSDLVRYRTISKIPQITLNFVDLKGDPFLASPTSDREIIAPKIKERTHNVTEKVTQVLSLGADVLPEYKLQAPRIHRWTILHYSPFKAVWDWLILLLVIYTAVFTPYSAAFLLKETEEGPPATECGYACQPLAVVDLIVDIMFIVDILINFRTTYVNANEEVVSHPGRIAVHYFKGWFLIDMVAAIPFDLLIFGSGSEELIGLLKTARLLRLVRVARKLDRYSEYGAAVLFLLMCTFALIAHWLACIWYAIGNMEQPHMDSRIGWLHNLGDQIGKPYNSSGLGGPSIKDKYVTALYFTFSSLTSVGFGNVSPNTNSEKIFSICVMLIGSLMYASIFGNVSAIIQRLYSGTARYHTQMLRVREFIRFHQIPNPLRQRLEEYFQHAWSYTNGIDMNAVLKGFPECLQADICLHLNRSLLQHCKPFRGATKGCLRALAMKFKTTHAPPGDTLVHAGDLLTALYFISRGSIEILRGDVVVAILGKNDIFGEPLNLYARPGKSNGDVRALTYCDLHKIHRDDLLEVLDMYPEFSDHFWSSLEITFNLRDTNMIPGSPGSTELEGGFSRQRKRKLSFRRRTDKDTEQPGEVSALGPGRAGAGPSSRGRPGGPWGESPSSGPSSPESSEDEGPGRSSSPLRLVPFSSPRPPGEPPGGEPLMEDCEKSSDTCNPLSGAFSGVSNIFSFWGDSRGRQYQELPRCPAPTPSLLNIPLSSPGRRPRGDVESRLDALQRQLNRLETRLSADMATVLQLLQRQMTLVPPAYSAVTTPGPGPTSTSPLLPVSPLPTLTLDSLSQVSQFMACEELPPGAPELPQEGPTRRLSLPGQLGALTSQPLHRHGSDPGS

In the case of `CN(C)N=C(S)Nc1ccc2nc(-c3ccccn3)c(-c3ccccn3)nc2c1`, the IC50 in [1] is 9.92 µM (active); in test [3], 14.3 µM (active). Moreover, the EC50 in [2] is > 53 µM (inactive).

As to `O=C1Nc2cc(C(=O)NCCCN3CCOCC3)ccc2S/C1=C/c1ccccc1F`, the EC50 in [4] was 2.66 µM (active). Also, the IC50 on Beta-lactamase [5], at Beta-lactamase [6] and on Beta-lactamase [7] was > 59.6 µM (inactive) throughout.

`CC(C)(C)C(=O)Nc1nnc(CSCc2ccccc2F)s1`: the IC50 at Beta-lactamase [5] was > 59.6 µM (inactive); on Beta-lactamase [6] it was > 59.6 µM (inactive); on Beta-lactamase [7], > 59.6 µM (inactive); at Phospholipase A2 it was 6.65 µM (active); at Cysteine protease ATG4B, 8.86 µM (active).

`CCCC1OC23CCCCC2C(C#N)(C(=N)O3)C1(C#N)C#N` (stereo unspecified): in test [8], the IC50 was > 9.99 µM (inactive).

In the case of `Cc1ccc(NC(=O)CN(C)C(=O)Cc2ccc(Cl)cc2Cl)cc1`, the IC50 in test [9] was 16.5 µM (inactive); in test [10], 6.81 µM (active); in test [11], 83.3 µM (inactive).

The compound `C[C@H](NC(=O)C[C@@H]1C=C[C@@H](NC(=O)Cc2ccccn2)[C@@H](CO)O1)c1ccccc1` showed an AbsAC35 in test [12] of 153.45 µM.

In test [12], `CN1C(=O)c2cc(NC(=O)Cc3cccs3)ccc2OC[C@@H]2O[C@H](CC(=O)NCc3ccc(-c4ccccc4)cc3)CC[C@H]21` showed an AbsAC35 of 112.32 µM.

For the compound `O=[N+]([O-])c1ccc(-c2ccc(/C=N/c3cccc4ccccc34)o2)cc1`, the IC50 in test [8] was 8.15 µM (active).

Usually AC50 stands for the concentration at which the activity in the assay is half-maximal. Take `COc1ccc(C2=Nn3c(nnc3-c3ccccc3OC)SC2)cc1OCC1CC1`: the AC50 in the test on Vero was 29.1 µM (active). Moreover, the values for the IC50 in test [13] and in test [14] were 0.35 µM (active) and > 109 µM (inactive), respectively.

Consider `CCCCCCCC/C=C\CCCCCCCC(=O)NCCO` [OLEOYLETHANOLAMIDE], for which the AC50 in [15] is > 100 µM (inactive); in test [16] it was 35.5 µM (inconclusive); on Cytochrome P450 3A4 it was 31.6 µM (inconclusive); in [17], 7.67 µM (active).
